In patent publication US20220339248A1, “METHODS FOR TREATING NEOINTIMAL HYPERLASIA USING F11R/JAM-A INHIBITORS” (THE RESEARCH FOUNDATION FOR THE STATE UNIVERSITY OF NEW YORK, priority 2019, published 2022):
“Also recorded” adds a separate entry of the source. Non-standard residues stand in square brackets, D forms with d.

Legend:
[1] = target: T1, F11R (Homo sapiens, UniProt Q9Y624); conditions: statement in words; activity described in Babinska et al. and U.S. Pat. Nos. 9,556,235 and 8,557,957; cited from earlier work
T1 sequence (Q9Y624 28-299): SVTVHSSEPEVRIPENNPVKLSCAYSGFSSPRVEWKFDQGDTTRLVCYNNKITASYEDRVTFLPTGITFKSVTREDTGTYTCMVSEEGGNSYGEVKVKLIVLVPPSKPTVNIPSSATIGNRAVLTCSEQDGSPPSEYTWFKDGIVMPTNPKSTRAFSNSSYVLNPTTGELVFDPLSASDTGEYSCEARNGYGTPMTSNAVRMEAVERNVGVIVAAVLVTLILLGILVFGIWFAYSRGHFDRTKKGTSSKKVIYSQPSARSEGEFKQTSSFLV

[2] = tested on: uremic C57BL/6 mice; experiment: Carotid artery partial ligation (focal LCA stenosis) model of neointimal hyperplasia in 5/6 nephrectomized uremic mice; assay type: in vivo, mouse; conditions: for mean Intima Index (intima area/intima+media area) from 1 LCA location with biggest focal stenosis: FIG. 7, control 0.47±0.15, U-Mann Whitney p=0.039
Method: Carotid artery ligation was performed on 14 uremic C57BL/6 mice that underwent 5/6 nephrectomy. One week after nephrectomy, partial ligation of the left carotid artery (LCA) was performed on each mouse. Focal LCA stenosis was created by placing 9-0 nylon suture at 1 mm proximal to the carotid bifurcation (mid-focal stenosis) around the artery using a 35-gauge blunt needle (World precision Instruments, Inc., Sarasota, Fla.). Then the needle mandrel was gently removed to restore blood flow.
Mice were fed a regular mouse diet and divided into 2 groups of 7 mice each; the experimental group received Peptide 4D while the Control group received saline injections by intraperitoneal route for 21 days, as this was the time shown in earlier studies to correlate with development of neointimal hyperplasia following partial ligation of the carotid artery.
The mice were then euthanized on day 21 and both LCA and right carotid artery (RCA) were excised for analysis. Specimens were embedded in paraffin. Serial sections (6 μm thick) were collected at 200-μm intervals of the LCA from mid-focal stenosis as well as from the RCA serving as lesion control. Data were analyzed qualitatively and quantitatively using Image J software. The two groups were compared for differences in mean Intima Area and Intima Index, defined as the ratio of intima area divided by intima plus media area.

SVTVHSSEPEVRIPENNPVKLSC (SVTVHSSEPEVXIPENNPVKLSC; Laboratory synthesized sequence; (12)..(12) Xaa can be any naturally occurring amino acid) [SEQ ID NO: 11, 23-amino acid N-terminal peptide of F11R/JAM-A]
inhibition of the biological activities of F11R [1]: inhibitor of the biological activities of F11R

SSEPEVRIPENNPV (Laboratory synthesized sequence) [SEQ ID NO: 16]
inhibition of the biological activities of F11R [1]: inhibitor of the biological activities of F11R

KSVTREDTGTYTC (Laboratory synthesized sequence) [SEQ ID NO: 2]
inhibition of the biological activities of F11R [1]: inhibitor of the biological activities of F11R

NH2-(dK)-SVT-(dR)-EDTGTYTC-CONH2 (H-[dK]SVT[dR]EDTGTYTC-NH2; SMILES CC(C)[C@H](NC(=O)[C@H](CO)NC(=O)[C@H](N)CCCCN)C(=O)N[C@H](C(=O)N[C@H](CCCNC(=N)N)C(=O)N[C@@H](CCC(=O)O)C(=O)N[C@@H](CC(=O)O)C(=O)N[C@H](C(=O)NCC(=O)N[C@H](C(=O)N[C@@H](Cc1ccc(O)cc1)C(=O)N[C@H](C(=O)N[C@@H](CS)C(N)=O)[C@@H](C)O)[C@@H](C)O)[C@@H](C)O)[C@@H](C)O) [Peptide 4D]
mean Intima Index (intima area/intima+media area) from 10 LCA locations ([2]; FIG. 6, 21 days, n=7, control 0.27±0.13, U-Mann Whitney p=0.0079): significantly less
mean Intima Index (intima area/intima+media area) from 1 LCA location with biggest focal stenosis ([2]; 21 days, n=7): significantly less
mean Intima Index (intima area/intima+media area) from 1 LCA location with biggest focal stenosis ([2]; 21 days, n=7, listed as peptide 4D): 0.31±0.14
intima area relative to distance from the ligation point (mid focal stenosis morphometry) ([2]; FIGS. 3A-3B, 4, LCA, 21 days, versus saline control, n=7): significantly smaller; also recorded: significantly decreased intima area
effect on neointimal hyperplasia ([2]; carotid ligation model, 21 days, versus saline control): significantly inhibits neointimal hyperplasia
number of mice whose LCA had severe neointimal hyperplasia ([2]; of 7 experimental mice, all control LCA severe, two with complete luminal occlusion): one
